For this series, the target named is CYP106A2 (Priestia megaterium, UniProt Q06069). Briefly: Absorbance difference spectra titration of CYP106A2. As to conditions: 1 µM CYP106A2. It is filed as binding, bacterial. As for the experimental part: Fig. 5 CYP106A2 interaction with steroidal isonitriles. […] Maximum concentration of 2 (light blue trace) is 20 µM. […] Maximum concentration of 4 is ~10 µM (blue trace). C Overlay of 800 MHz ^1H,^15N-TROSY-HSQC spectra of ^15N-Gly-labeled CYP106A2 with levopimaric acid p-benzoquinone Diels-Alder adduct bound after reduction with sodium dithionite and treatment with carbon monoxide (red), or with 7,17-(bis)isonitrile 4 (blue) after anaerobic reduction with sodium dithionite.

Each structure is given as a SMILES string.

Sequence of CYP106A2 (Q06069 whole entry): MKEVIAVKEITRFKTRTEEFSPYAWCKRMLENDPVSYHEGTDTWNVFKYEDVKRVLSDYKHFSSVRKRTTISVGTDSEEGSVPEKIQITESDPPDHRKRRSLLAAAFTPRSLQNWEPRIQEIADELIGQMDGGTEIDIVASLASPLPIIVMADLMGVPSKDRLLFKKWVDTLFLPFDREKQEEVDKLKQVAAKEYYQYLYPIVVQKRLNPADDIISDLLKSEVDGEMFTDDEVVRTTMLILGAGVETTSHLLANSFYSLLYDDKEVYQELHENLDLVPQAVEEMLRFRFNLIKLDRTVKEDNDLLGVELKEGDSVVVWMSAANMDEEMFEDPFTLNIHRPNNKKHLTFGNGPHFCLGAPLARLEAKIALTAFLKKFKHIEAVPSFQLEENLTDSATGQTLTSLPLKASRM

As to `[C-]#[N+][C@H](C)[C@H]1CC[C@H]2[C@@H]3CC[C@H]4C[C@@H](OC=O)CC[C@]4(C)[C@H]3CC[C@]12C` [Compound 1, 3β-formyl-5α-pregnanolone-(R)-20-isonitrile], the “spectral response / binding mode on CYP106A2” value is recorded as “does not cause spectral perturbation”. For the same compound, the “spectral response / binding mode on CYP106A2” value (listed as 20-(R)-1) was “no evidence for formation of a Fe—C bonded complex”.
